The values below come from patent publication US20230233567A1, “BELVARAFENIB FOR USE IN CANCER TREATMENT” (Hanmi Pharm. Co., Ltd., priority 2020, published 2023).

Read-outs that look alike come from different tables or passages of the source.

One test relates to NRAS-mutant melanoma. To be noted: NRAS-mutant melanoma patients, NEMO study; cited from earlier work.
The next test concerns P-MEK / total MEK. The test can be described thus: % P/T-MEK (ratio of P-MEK and total MEK). Here is the method: Belvarafenib was evaluated to measure the inhibition capability of RAF monomers and dimers. In Table 12: “A375” refers to the A375 a human melanoma cell line bearing a BRAF^V600E mutation; “IPC298” refers to the IPC298 cutaneous melanoma cell line bearing an NRAS^Q61L mutation; “A549” refers to the A549 lung adenocarcinoma cell line baring a KRAS mutation; “CSFR1” refers to the CSFR1 gene; “DDR1” refers to discoidin domain receptors DDR1; and “DDR2” refers to discoidin domain receptors DDR2. In Table 13: “% P/T−MEK” refers to the ratio of P-MEK and total MEK; “Conc 1” refers to an inhibitor first (lowest) concentration; “Conc 2” refers to an inhibitor second (intermediate) concentration; and “Conc 3” refers to an inhibitor third (highest) concentration. In Table 13, LXH254 refers to a drug having CAS No.: 1800398-38-2 and the following structure: […]

The next test concerns Lovo (KRAS^G13D). Kind of test: In vitro cell growth inhibition, CRC. It is filed as cell-based. To be noted: Homo sapiens.
Another test deals with LS174T (KRAS^G12D). Kind of test: In vitro cell growth inhibition, CRC. In kind it is cell-based. To be noted: Homo sapiens.
Another test has as its system LS513 (KRAS^G12D). The test can be described thus: In vitro cell growth inhibition, CRC. It is filed as cell-based. To be noted: Homo sapiens, LS-513.
In a further test the test system is SK-MEL-2 (NRAS^Q61R). Kind of test: In vitro cell growth inhibition, melanoma. It is filed as cell-based. To be noted: Homo sapiens, mean ± SD, n = 3. Here is the method:
(§1) A G150 of 69, 57, 53, and 24 nM were determined for SK-MEL-28, A375, SK-MEL-2, and SK-MEL-30 cell lines, respectively.

The next test concerns SK-MEL-30 (NRAS^Q61K). The test can be described thus: In vitro cell growth inhibition, melanoma. In kind it is cell-based. To be noted: Homo sapiens, mean ± SD, n = 3. Here is the method: as §1
Another test relates to A375 (BRAF^V600E). Kind of test: In vitro cell growth inhibition, melanoma. It is filed as cell-based. To be noted: Homo sapiens, A-375, mean ± SD, n = 3.
Test [1] relates to MEK and ERK phosphorylation in HCT116 (KRAS^G13D) cells. The test can be described thus: Inhibition of MEK and ERK phosphorylation, KRAS mutant. It is filed as cell-based. To be noted: Homo sapiens, HCT-116, CRC HCT116, KRAS G13D, 2 hr treatment.
Test [2] deals with MEK and ERK phosphorylation in Lovo (KRAS^G13D) cells. The description is as above. In kind it is cell-based. To be noted: Homo sapiens, CRC Lovo, KRAS G13D, 2 hr treatment.
A further test concerns Calu-1 (KRAS^G12C). The test can be described thus: In vitro cell growth inhibition, NSCLC. In kind it is cell-based. To be noted: Homo sapiens.
The subject of another test is Calu-6 (KRAS^Q61K). Kind of test: In vitro cell growth inhibition, NSCLC. In kind it is cell-based. To be noted: Homo sapiens.
The test system of another test is HCT116 (KRAS^G13D). The test can be described thus: In vitro cell growth inhibition, CRC. It is filed as cell-based. To be noted: Homo sapiens, HCT-116.
A further test relates to SK-MEL-28 (BRAF^V600E). Kind of test: In vitro cell growth inhibition, melanoma. It is filed as cell-based. To be noted: Homo sapiens, mean ± SD, n = 3.
Test [3] has as its system MEK and ERK phosphorylation in Calu-6 (KRAS^Q61K) cells. The test can be described thus: Inhibition of MEK and ERK phosphorylation, KRAS mutant. In kind it is cell-based. To be noted: Homo sapiens, NSCLC Cau-6 (Calu-6), 2 hr treatment.
A further test has as its system FRO (BRAF^V600E). The test can be described thus: In vitro cell growth inhibition, thyroid cancer. It is filed as cell-based.
The subject of the next test is Colo-205 (BRAF^V600E). Kind of test: In vitro cell growth inhibition, CRC. It is filed as cell-based. To be noted: Homo sapiens.
Another test relates to ARO (BRAF^V600E). Kind of test: In vitro cell growth inhibition, thyroid cancer. In kind it is cell-based.
Another test concerns SNU80 (BRAF^G468R). Kind of test: In vitro cell growth inhibition, thyroid cancer. It is filed as cell-based.
In test [4] the test system is MEK and ERK phosphorylation in SK-MEL-28 (BRAF^V600E) cells. The test can be described thus: Inhibition of MEK and ERK phosphorylation. In kind it is cell-based. To be noted: Homo sapiens.
Test [5] deals with MEK and ERK phosphorylation in A375 (BRAF^V600E) cells. Kind of test: Inhibition of MEK and ERK phosphorylation. In kind it is cell-based. To be noted: Homo sapiens.
The subject of a further test is B-CPAP (BRAF^V600E). The test can be described thus: In vitro cell growth inhibition, thyroid cancer. To be noted: Homo sapiens, BCPAP. It is filed as cell-based.
Test [6] concerns MEK and ERK phosphorylation in SK-MEL-2 (NRAS^Q61R) cells. Kind of test: Inhibition of MEK and ERK phosphorylation. It is filed as cell-based. To be noted: Homo sapiens.
The next test addresses DDR1 (Homo sapiens, UniProt Q08345). The test can be described thus: In vitro kinase assay. In kind it is biochemical. To be noted: confirmatory assay. As to the method: (§2) The in vitro kinase inhibitory selectivity and activity of belvarafenib were evaluated in a kinase panel assay against 189 kinases and a subsequent confirmatory assay against selected kinases by using Z′-Lyte® biochemical assay, Lantha® binding assay and Adapter® assay.

In another test the target is T1, DDR2 (Homo sapiens, UniProt Q16832).
T1 sequence (Q16832 22-855): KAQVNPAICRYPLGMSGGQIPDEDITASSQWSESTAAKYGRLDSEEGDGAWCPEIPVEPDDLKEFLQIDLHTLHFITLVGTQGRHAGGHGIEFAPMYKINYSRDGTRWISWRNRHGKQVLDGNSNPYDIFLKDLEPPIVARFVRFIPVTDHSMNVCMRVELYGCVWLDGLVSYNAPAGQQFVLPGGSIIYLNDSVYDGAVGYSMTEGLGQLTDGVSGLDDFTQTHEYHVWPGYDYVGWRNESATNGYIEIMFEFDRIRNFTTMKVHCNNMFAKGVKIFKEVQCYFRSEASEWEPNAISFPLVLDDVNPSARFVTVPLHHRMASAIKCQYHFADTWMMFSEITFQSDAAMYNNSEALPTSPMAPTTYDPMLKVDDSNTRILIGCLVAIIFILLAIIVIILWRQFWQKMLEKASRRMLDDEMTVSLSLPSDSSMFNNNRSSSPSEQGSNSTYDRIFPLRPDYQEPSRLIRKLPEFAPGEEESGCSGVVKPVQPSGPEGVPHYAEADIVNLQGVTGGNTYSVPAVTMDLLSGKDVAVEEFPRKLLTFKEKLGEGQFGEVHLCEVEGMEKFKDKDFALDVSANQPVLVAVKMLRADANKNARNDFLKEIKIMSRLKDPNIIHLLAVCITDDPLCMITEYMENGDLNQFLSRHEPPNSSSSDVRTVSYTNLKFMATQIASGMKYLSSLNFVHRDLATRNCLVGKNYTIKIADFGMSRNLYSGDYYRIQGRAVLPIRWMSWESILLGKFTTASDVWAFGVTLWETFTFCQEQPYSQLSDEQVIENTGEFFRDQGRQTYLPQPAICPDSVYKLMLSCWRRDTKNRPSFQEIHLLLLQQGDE
Kind of test: In vitro kinase assay. In kind it is biochemical. To be noted: confirmatory assay. Here is the method:
as §2

In a further test the target is CSF1R (FMS) (Homo sapiens, UniProt P07333). Kind of test: In vitro kinase assay. To be noted: confirmatory assay. It is filed as biochemical. As to the method: as §2
Chain of CSF1R (FMS) (P07333 20-972): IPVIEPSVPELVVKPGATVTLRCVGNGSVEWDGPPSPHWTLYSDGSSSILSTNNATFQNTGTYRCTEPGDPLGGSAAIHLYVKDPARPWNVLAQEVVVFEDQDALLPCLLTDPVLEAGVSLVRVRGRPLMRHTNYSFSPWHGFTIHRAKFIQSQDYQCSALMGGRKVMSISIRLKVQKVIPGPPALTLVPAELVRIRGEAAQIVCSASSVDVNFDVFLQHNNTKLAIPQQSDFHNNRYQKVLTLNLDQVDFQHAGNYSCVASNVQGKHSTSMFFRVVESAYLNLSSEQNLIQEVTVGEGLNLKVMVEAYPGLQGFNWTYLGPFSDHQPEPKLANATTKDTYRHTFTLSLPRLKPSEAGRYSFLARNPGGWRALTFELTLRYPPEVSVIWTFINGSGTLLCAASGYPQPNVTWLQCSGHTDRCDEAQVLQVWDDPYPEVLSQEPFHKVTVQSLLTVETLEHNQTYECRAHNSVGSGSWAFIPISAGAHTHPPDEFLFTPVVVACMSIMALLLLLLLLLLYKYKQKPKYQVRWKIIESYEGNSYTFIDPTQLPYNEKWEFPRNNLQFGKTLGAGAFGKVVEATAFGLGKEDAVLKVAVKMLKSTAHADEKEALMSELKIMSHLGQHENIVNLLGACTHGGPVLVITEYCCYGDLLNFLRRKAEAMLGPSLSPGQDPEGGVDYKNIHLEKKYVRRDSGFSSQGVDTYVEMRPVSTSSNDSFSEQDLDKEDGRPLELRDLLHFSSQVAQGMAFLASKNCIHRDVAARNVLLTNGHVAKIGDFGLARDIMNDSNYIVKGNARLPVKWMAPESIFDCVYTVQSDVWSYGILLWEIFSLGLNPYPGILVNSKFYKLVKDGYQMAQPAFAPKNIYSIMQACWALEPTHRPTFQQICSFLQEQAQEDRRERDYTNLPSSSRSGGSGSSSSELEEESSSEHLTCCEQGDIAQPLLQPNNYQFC
Another test concerns NPA (BRAF^V600E). Kind of test: In vitro cell growth inhibition, thyroid cancer. It is filed as cell-based.
A further test concerns SNU790 (BRAF^V600E). The test can be described thus: In vitro cell growth inhibition, thyroid cancer. It is filed as cell-based. To be noted: SNU7890, BRAF^V600E.
A further test deals with CAL-62 (KRAS^G12R). The test can be described thus: In vitro cell growth inhibition, thyroid cancer. To be noted: Homo sapiens. It is filed as cell-based.
In test [7] the test system is MEK and ERK phosphorylation in SK-MEL-30 (NRAS^Q61K) cells. The test can be described thus: Inhibition of MEK and ERK phosphorylation. In kind it is cell-based. To be noted: Homo sapiens.
The test system of another test is 8505C (BRAF^V600E). Kind of test: In vitro cell growth inhibition, thyroid cancer. In kind it is cell-based. To be noted: Homo sapiens.
The subject of a further test is HT-29 (BRAF^V600E). The test can be described thus: In vitro cell growth inhibition, CRC. In kind it is cell-based. To be noted: Homo sapiens.
Setting [8] is: Conc 1, first (lowest) concentration.
[9] abbreviates: Conc 2, second (intermediate) concentration.
The mark [10] stands for this setting: Conc 3, third (highest) concentration.

Chain of DDR1 (Q08345 19-913): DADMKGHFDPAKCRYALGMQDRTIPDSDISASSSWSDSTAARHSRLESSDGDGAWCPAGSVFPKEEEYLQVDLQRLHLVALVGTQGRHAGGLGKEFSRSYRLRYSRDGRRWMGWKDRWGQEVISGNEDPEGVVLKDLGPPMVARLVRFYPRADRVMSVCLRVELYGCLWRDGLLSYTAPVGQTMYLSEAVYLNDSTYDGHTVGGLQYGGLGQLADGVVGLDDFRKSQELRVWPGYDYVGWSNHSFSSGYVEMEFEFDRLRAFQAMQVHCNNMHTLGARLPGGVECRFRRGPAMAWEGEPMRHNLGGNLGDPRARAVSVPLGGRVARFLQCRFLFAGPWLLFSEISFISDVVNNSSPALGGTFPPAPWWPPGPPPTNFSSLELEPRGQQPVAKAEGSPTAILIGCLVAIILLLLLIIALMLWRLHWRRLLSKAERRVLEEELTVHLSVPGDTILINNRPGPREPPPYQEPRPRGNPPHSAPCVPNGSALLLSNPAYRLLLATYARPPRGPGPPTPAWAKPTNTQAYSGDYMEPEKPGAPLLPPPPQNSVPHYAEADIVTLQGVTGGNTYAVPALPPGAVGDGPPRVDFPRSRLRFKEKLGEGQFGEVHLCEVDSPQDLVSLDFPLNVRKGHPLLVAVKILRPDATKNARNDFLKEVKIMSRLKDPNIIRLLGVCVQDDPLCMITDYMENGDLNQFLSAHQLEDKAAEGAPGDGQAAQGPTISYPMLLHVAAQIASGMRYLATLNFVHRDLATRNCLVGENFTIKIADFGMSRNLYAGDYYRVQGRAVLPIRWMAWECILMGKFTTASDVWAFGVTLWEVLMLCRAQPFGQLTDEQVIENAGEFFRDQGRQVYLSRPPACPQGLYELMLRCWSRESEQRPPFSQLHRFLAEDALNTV

Consider `Cn1cnc2c(F)c(Nc3ccc(Br)cc3F)c(C(=O)NOCCO)cc21` [binimetinib], for which, in the test on NRAS-mutant melanoma, the mPFS is reported as 2.8 months and the overall response rate is recorded as 15%.
`Cc1ccc(NC(=O)c2ccnc(C(F)(F)F)c2)cc1-c1cc(OCCO)nc(N2CCOCC2)c1` [LXH254]: the “% P/T-MEK” value in the test on P-MEK / total MEK (setting [8]) came to 80%; with P-MEK / total MEK (setting [9]) it was 70%; with P-MEK / total MEK (setting [10]), 10%.
Turning to `CC(C)(C)c1nc(-c2cccc(NS(=O)(=O)c3c(F)cccc3F)c2F)c(-c2ccnc(N)n2)s1` [Dabrafenib], the GI50 in the test with Lovo (KRAS^G13D) was 0.214 µM; in the test with LS174T (KRAS^G12D), over 10 µM; with LS513 (KRAS^G12D), 3.06 µM; with SK-MEL-2 (NRAS^Q61R), 0.204 µM; with SK-MEL-30 (NRAS^Q61K), 0.258 µM; with A375 (BRAF^V600E) it was under 0.0001 µM. The GI50 with Calu-1 (KRAS^G12C) is 0.904 µM; with Calu-6 (KRAS^Q61K), 0.618 µM; in the test on HCT116 (KRAS^G13D), over 10 µM; in the test on SK-MEL-28 (BRAF^V600E), under 0.0001 µM. For the same compound, the IC50 in test [1] (read-out: IC50 pERK), in test [1] (read-out: IC50 pMEK), in test [2] (read-out: IC50 pERK), in [2] (read-out: IC50 pMEK), in [3] (read-out: IC50 pERK) and in test [3] (read-out: IC50 pMEK) was over 10 µM each time. For the same compound, the “% P/T-MEK” value in the test with P-MEK / total MEK (setting [8]) was determined as 125%; in the test with P-MEK / total MEK (setting [9]), 150%; with P-MEK / total MEK (setting [10]), 75%.
For the compound `CCCS(=O)(=O)Nc1ccc(F)c(C(=O)c2c[nH]c3ncc(-c4ccc(Cl)cc4)cc23)c1F` [Vemurafenib, reference compound], the GI50 in the test on Lovo (KRAS^G13D) is 4.03 µM; with FRO (BRAF^V600E) it was 1.76 µM; in the test on LS174T (KRAS^G12D) it was over 10 µM; with LS513 (KRAS^G12D), over 10 µM; with Colo-205 (BRAF^V600E), 0.065 µM; in the test on ARO (BRAF^V600E) it was 5.26 µM. In addition, the GI50 is over 10 µM in the test on SK-MEL-2 (NRAS^Q61R); over 10 µM in the test with SK-MEL-30 (NRAS^Q61K); 0.075 ± 0.012 µM in the test on A375 (BRAF^V600E); 2.85 µM with SNU80 (BRAF^G468R); 7.48 µM in the test on Calu-1 (KRAS^G12C); 0.031 µM in the test on B-CPAP (BRAF^V600E). The GI50 in the test on Calu-6 (KRAS^Q61K) is over 10 µM; in the test on NPA (BRAF^V600E), 0.044 µM; in the test on SNU790 (BRAF^V600E), 0.19 µM; in the test on CAL-62 (KRAS^G12R) it was over 10 µM; in the test with 8505C (BRAF^V600E), 3.44 µM; in the test with HCT116 (KRAS^G13D) it was over 10 µM. In addition, the GI50 in the test with SK-MEL-28 (BRAF^V600E) came out at 0.077 ± 0.017 µM; with HT-29 (BRAF^V600E) it was 0.11 µM. Moreover, the IC50 in test [1] (read-out: IC50 pERK) was over 10 µM; in test [1] (read-out: IC50 pMEK), over 10 µM; in [4] (read-out: IC50 pERK), 0.028 µM; in [4] (read-out: IC50 pMEK), 0.032 µM; in test [2] (read-out: IC50 pERK), over 10 µM; in test [2] (read-out: IC50 pMEK) it was over 10 µM. Besides, the IC50 is 0.02 µM in test [5] (A-375, read-out: IC50 pERK); 0.073 µM in test [5] (A-375, read-out: IC50 pMEK); over 10 µM in test [6] (read-out: IC50 pERK); over 10 µM in [6] (read-out: IC50 pMEK); over 10 µM against DDR1; over 10 µM against DDR2. The IC50 (against CSF1R (FMS); in test [7] (read-out: IC50 pERK); in test [7] (read-out: IC50 pMEK); in test [3] (read-out: IC50 pERK); in [3] (read-out: IC50 pMEK)) was over 10 µM throughout.
